# Test results reported in US12516095B2, “Peptide hormone analogues” (IP2IPO INNOVATIONS LIMITED, priority 2019, dated 2026).
# Starred links: 1 amine or outer side, 2 acyl side, 3 side chain; linkers in the order of their positions; H or OH if unused. Non-standard residues stand in square brackets, D forms with d. Residues, ends and D or L forms follow the SMILES beside them. Groups on a side chain read outwards from the residue. *: point of attachment. C20 diacid = O=C(O)CCCCCCCCCCCCCCCCCCC(=O)*; C18 diacid = O=C(O)CCCCCCCCCCCCCCCCC(=O)*; γGlu = O=C(O)[C@H](CCC(=O)[*:2])N[*:1]; Aib = CC(C)(N)C(=O)O
# Test: PK measurements for half life assessment in pigs
# Type: in vivo, pig
# Details: male, large white, pig, plasma, sc, single subcutaneous injection, time from tmax to half of Cmax, typically mean of four animals
# Protocol: Male large white pigs receive a single subcutaneous injection of the test compound at the start of study (0 hours). Repeated blood samples were taken from the pig over the proceeding 168 hours and plasma separated and stored at −20 to −80° C. Plasma concentration of the test compound was quantified using a radioimmunoassay or mass spectrum analysis. Time taken from tmax to half of Cmax was calculated and represents the half-life (t½) of the compound. Typically, the presented t½ is the mean of four separate animals.
row,SMILES,half-life [h]
1,CC[C@H](C)[C@H](NC(=O)[C@H](Cc1ccccc1)NC(=O)[C@H](CCC(=O)O)NC(=O)[C@H](Cc1c[nH]cn1)NC(=O)[C@H](C)NC(=O)[C@H](CCCNC(=N)N)NC(=O)[C@H](CCCCN)NC(=O)[C@H](C)NC(=O)[C@H](CC(=O)O)NC(=O)[C@H](CC(C)C)NC(=O)[C@H](Cc1ccc(O)cc1)NC(=O)[C@H](CCCCN)NC(=O)[C@H](CO)NC(=O)[C@H](Cc1ccc(O)cc1)NC(=O)[C@H](CC(=O)O)NC(=O)[C@H](CO)NC(=O)[C@@H](NC(=O)[C@H](Cc1ccccc1)NC(=O)[C@@H](NC(=O)CNC(=O)[C@H](Cc1c[nH]cn1)NC(=O)C(C)(C)NC(=O)[C@@H](N)Cc1c[nH]cn1)[C@@H](C)O)[C@@H](C)O)C(=O)N[C@@H](CCC(=O)O)C(=O)N[C@@H](Cc1c[nH]c2ccccc12)C(=O)N[C@@H](CC(C)C)C(=O)N[C@@H](CC(C)C)C(=O)N[C@@H](CCC(N)=O)C(=O)N[C@@H](CO)C(=O)N[C@@H](Cc1c[nH]cn1)C(=O)N[C@@H](CCC(N)=O)C(=O)N[C@@H](CCC(N)=O)C(=O)N[C@@H](Cc1c[nH]cn1)C(=O)N[C@@H](CO)C(=O)N1CCC[C@H]1C(=O)N1CCC[C@H]1C(=O)N1CCC[C@H]1C(=O)N[C@@H](CCCCNC(=O)[C@H](CO)NC(=O)CNC(=O)CC[C@H](NC(=O)CCCCCCCCCCCCCCCCC(=O)O)C(=O)O)C(=O)O [Example 507] (H-H[Aib]HGTFTSDYSKYLDAKRAHEFIEWLLQSHQQHSPPPK([Ser-Gly-γGlu-C18 diacid])-OH),112
2,CC[C@H](C)[C@H](NC(=O)[C@H](Cc1ccccc1)NC(=O)[C@H](CCC(=O)O)NC(=O)[C@H](CCC(N)=O)NC(=O)[C@H](C)NC(=O)[C@H](CCCNC(=N)N)NC(=O)[C@H](CCCCN)NC(=O)[C@H](C)NC(=O)[C@H](CC(=O)O)NC(=O)[C@H](CC(C)C)NC(=O)[C@H](Cc1ccc(O)cc1)NC(=O)[C@H](CCCCN)NC(=O)[C@H](CO)NC(=O)[C@H](Cc1ccc(O)cc1)NC(=O)[C@H](CC(=O)O)NC(=O)[C@H](CO)NC(=O)[C@@H](NC(=O)[C@H](Cc1ccccc1)NC(=O)[C@@H](NC(=O)CNC(=O)[C@H](Cc1c[nH]cn1)NC(=O)C(C)(C)NC(=O)[C@@H](N)Cc1c[nH]cn1)[C@@H](C)O)[C@@H](C)O)C(=O)N[C@@H](CCC(=O)O)C(=O)N[C@@H](Cc1c[nH]c2ccccc12)C(=O)N[C@@H](CC(C)C)C(=O)N[C@@H](CC(C)C)C(=O)N[C@@H](CCC(N)=O)C(=O)N[C@@H](CO)C(=O)N[C@@H](Cc1c[nH]cn1)C(=O)N[C@@H](CCC(N)=O)C(=O)N[C@@H](Cc1c[nH]cn1)C(=O)N1CCC[C@H]1C(=O)N[C@@H](CO)C(=O)N1CCC[C@H]1C(=O)N1CCC[C@H]1C(=O)N1CCC[C@H]1C(=O)N[C@@H](CCCCNC(=O)CC[C@H](NC(=O)CCCCCCCCCCCCCCCCCCC(=O)O)C(=O)O)C(=O)O [Example 544] (H-H[Aib]HGTFTSDYSKYLDAKRAQEFIEWLLQSHQHPSPPPK([γGlu-C20 diacid])-OH),83
3,CC[C@H](C)[C@H](NC(=O)[C@H](Cc1ccccc1)NC(=O)[C@H](CCC(=O)O)NC(=O)[C@H](CCC(N)=O)NC(=O)[C@H](C)NC(=O)[C@H](CCCNC(=N)N)NC(=O)[C@H](CCCCN)NC(=O)[C@H](C)NC(=O)[C@H](CC(=O)O)NC(=O)[C@H](CC(C)C)NC(=O)[C@H](Cc1ccc(O)cc1)NC(=O)[C@H](CCCCN)NC(=O)[C@H](CO)NC(=O)[C@H](Cc1ccc(O)cc1)NC(=O)[C@H](CC(=O)O)NC(=O)[C@H](CO)NC(=O)[C@@H](NC(=O)[C@H](Cc1ccccc1)NC(=O)[C@@H](NC(=O)CNC(=O)[C@H](Cc1c[nH]cn1)NC(=O)C(C)(C)NC(=O)[C@@H](N)Cc1c[nH]cn1)[C@@H](C)O)[C@@H](C)O)C(=O)N[C@@H](CCC(=O)O)C(=O)N[C@@H](Cc1c[nH]c2ccccc12)C(=O)N[C@@H](CC(C)C)C(=O)N[C@@H](CC(C)C)C(=O)N[C@@H](CCC(N)=O)C(=O)N[C@@H](CO)C(=O)N[C@@H](Cc1c[nH]cn1)C(=O)N[C@@H](Cc1c[nH]cn1)C(=O)N[C@@H](CCC(N)=O)C(=O)N[C@@H](CCC(N)=O)C(=O)N[C@@H](Cc1c[nH]cn1)C(=O)N[C@@H](CCC(=O)O)C(=O)N[C@@H](CO)C(=O)N1CCC[C@H]1C(=O)N1CCC[C@H]1C(=O)N1CCC[C@H]1C(=O)N[C@@H](CCCCNC(=O)[C@H](CC(N)=O)NC(=O)CC[C@H](NC(=O)CCCCCCCCCCCCCCCCCCC(=O)O)C(=O)O)C(=O)O [Example 549] (H-H[Aib]HGTFTSDYSKYLDAKRAQEFIEWLLQSHHQQHESPPPK([Asn-γGlu-C20 diacid])-OH),110

# The remaining lines, values ahead:
row,half-life [h],SMILES
1,84,CC[C@H](C)[C@H](NC(=O)[C@H](Cc1ccccc1)NC(=O)[C@H](CCC(=O)O)NC(=O)[C@H](Cc1c[nH]cn1)NC(=O)[C@H](C)NC(=O)[C@H](CCCNC(=N)N)NC(=O)[C@H](CCCCN)NC(=O)[C@H](C)NC(=O)[C@H](CC(=O)O)NC(=O)[C@H](CC(C)C)NC(=O)[C@H](Cc1ccc(O)cc1)NC(=O)[C@H](CCCCN)NC(=O)[C@H](CO)NC(=O)[C@H](Cc1ccc(O)cc1)NC(=O)[C@H](CC(=O)O)NC(=O)[C@H](CO)NC(=O)[C@@H](NC(=O)[C@H](Cc1ccccc1)NC(=O)[C@@H](NC(=O)CNC(=O)[C@H](Cc1c[nH]cn1)NC(=O)C(C)(C)NC(=O)[C@@H](N)Cc1c[nH]cn1)[C@@H](C)O)[C@@H](C)O)C(=O)N[C@@H](CCC(=O)O)C(=O)N[C@@H](Cc1c[nH]c2ccccc12)C(=O)N[C@@H](CC(C)C)C(=O)N[C@@H](CC(C)C)C(=O)N[C@@H](CCC(N)=O)C(=O)N[C@@H](CO)C(=O)N[C@@H](Cc1c[nH]cn1)C(=O)N[C@@H](CCC(N)=O)C(=O)N[C@@H](CCC(N)=O)C(=O)N[C@@H](Cc1c[nH]cn1)C(=O)N[C@@H](CCC(=O)O)C(=O)N[C@@H](CO)C(=O)N1CCC[C@H]1C(=O)N1CCC[C@H]1C(=O)N1CCC[C@H]1C(=O)N[C@@H](CCCCNC(=O)[C@H](CO)NC(=O)CNC(=O)CC[C@H](NC(=O)CCCCCCCCCCCCCCCCC(=O)O)C(=O)O)C(=O)O [Example 587] (H-H[Aib]HGTFTSDYSKYLDAKRAHEFIEWLLQSHQQHESPPPK([Ser-Gly-γGlu-C18 diacid])-OH)
2,65,CC[C@H](C)[C@H](NC(=O)[C@H](Cc1ccccc1)NC(=O)[C@H](CCC(=O)O)NC(=O)[C@H](Cc1c[nH]cn1)NC(=O)[C@H](C)NC(=O)[C@H](CCCNC(=N)N)NC(=O)[C@H](CCCCN)NC(=O)[C@H](C)NC(=O)[C@H](CC(=O)O)NC(=O)[C@H](CC(C)C)NC(=O)[C@H](Cc1ccc(O)cc1)NC(=O)[C@H](CCCCN)NC(=O)[C@H](CO)NC(=O)[C@H](Cc1ccc(O)cc1)NC(=O)[C@H](CC(=O)O)NC(=O)[C@H](CO)NC(=O)[C@@H](NC(=O)[C@H](Cc1ccccc1)NC(=O)[C@@H](NC(=O)CNC(=O)[C@H](Cc1c[nH]cn1)NC(=O)C(C)(C)NC(=O)[C@@H](N)Cc1c[nH]cn1)[C@@H](C)O)[C@@H](C)O)C(=O)N[C@@H](CCC(=O)O)C(=O)N[C@@H](Cc1c[nH]c2ccccc12)C(=O)N[C@@H](CC(C)C)C(=O)N[C@@H](CC(C)C)C(=O)N[C@@H](CCC(N)=O)C(=O)N[C@@H](CO)C(=O)N[C@@H](Cc1c[nH]cn1)C(=O)N[C@@H](CCC(N)=O)C(=O)N[C@@H](CCC(N)=O)C(=O)N[C@@H](Cc1c[nH]cn1)C(=O)N[C@@H](CCC(=O)O)C(=O)N[C@@H](CO)C(=O)N1CCC[C@H]1C(=O)N1CCC[C@H]1C(=O)N1CCC[C@H]1C(=O)N[C@@H](CCCCNC(=O)CC[C@H](NC(=O)CCCCCCCCCCCCCCCCCCC(=O)O)C(=O)O)C(=O)O [Example 588] (H-H[Aib]HGTFTSDYSKYLDAKRAHEFIEWLLQSHQQHESPPPK([γGlu-C20 diacid])-OH)
